Where two headings read alike, the source gives them in different places.
Key:
[1] = biological target: recombinant human Mcl-1 (residues 171-327) / Bim interaction (Homo sapiens (Human), UniProt Q07820); experiment: biochemical; assay type: binding; details: read-out: Mcl-1 HTRF IC50
[2] = system: human multiple myeloma cell line, OPM-2; experiment: Cell viability assay (OPM-2 10 FBS), CellTiter-Glo; assay type: cell-based
Outline: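 OPM-2 cells at 3000 cells/well in RPMI 1640 with 10% FBS were exposed to serially diluted compounds for 16 h at 37 °C, 5% CO2.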

[3] = TR-FRET, Mcl-1(171-327) / biotin-Bim (51-76)
[4] = Homo sapiens, OPM-2, 16 h, read-out: OPM-2 10% FBS IC50 IP, OPM-2 cells, 10% FBS, 16 h, CellTiter-Glo
[5] = 0.1 nM Mcl-1(171-327), 0.05 nM biotin-Bim (51-76)
[6] = read-out: OPM-2 10% FBS IC50 IP, OPM-2 cells, 10% FBS, 16 h incubation
[7] = read-out: OPM-2 10% FBS IC50 IP, OPM-2 cells, 10% FBS, 16 h, CellTiter-Glo
[8] = Homo sapiens, OPM-2, 16 h, read-out: OPM-2 10% FBS IC50 IP, OPM-2 cells, 10% FBS, 16 h incubation

Sequence of recombinant human Mcl-1 (residues 171-327) / Bim interaction (Q07820 171-327): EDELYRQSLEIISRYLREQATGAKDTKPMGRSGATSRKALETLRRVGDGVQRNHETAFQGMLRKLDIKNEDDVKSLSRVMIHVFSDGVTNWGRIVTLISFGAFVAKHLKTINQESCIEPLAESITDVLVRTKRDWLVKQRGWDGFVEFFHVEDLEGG

Compound	IC50 [1, 3]	IC50 [2, 4]	IC50 [1, 5]	also measured
CC[C@@]1(O)CCC[C@H](C)[C@@H](C)S(=O)(=O)NC(=O)c2ccc3c(c2)N(C[C@@H]2CC[C@H]21)C[C@@]1(CCCc2cc(Cl)ccc21)CO3 [Example 100079, (1S,3′R,6′R,7′R,11′S,12′R)-6-chloro-7′-ethyl-7′-hydroxy-11′,12′-dimethyl-3,4-dihydro-2H,15′H-spiro[naphthalene-1,22′-[20]oxa[13]thia[1,14]diazatetracyclo [14.7.2.0~3,6~.0~19,24~]pentacosa[16,18,24]trien]-15′-one 13′,13′-dioxide]	0.343 nM	713 nM	–	–
C[C@@H]1[C@@H](C)CCCC2(CN(S(C)(=O)=O)CCO2)[C@@H]2CC[C@H]2CN2C[C@@]3(CCCc4cc(Cl)ccc43)COc3ccc(cc32)C(=O)NS1(=O)=O (some centres unmarked) [Example 466]	–	–	0.9 nM	IC50 [2, 6]: 446 nM
CO[C@]1(CN2CCN3CC[C@H](F)C[C@@H]3C2)/C=C/C[C@H](C)[C@@H](C)S(=O)(=O)NC(=O)c2ccc3c(c2)N(C[C@@H]2CC[C@H]21)C[C@@]1(CCCc2cc(Cl)ccc21)CO3 (single isomer, unassigned) [Example 325]	–	–	0.18 nM	IC50 [2, 6]: 192 nM
C[C@@H]1[C@@H](C)C/C=C/[C@@](O)(C#N)[C@@H]2CC[C@H]2CN2C[C@@]3(CCCc4cc(Cl)ccc43)COc3ccc(cc32)C(=O)NS1(=O)=O [Example 100235, (1S,3′R,6′R,7′S,8′E,11′S,12′R)-6-chloro-7′-hydroxy-11′,12′-dimethyl-15′-oxo-3,4-dihydro-2H-spiro[naphthalene-1,22′-[20]oxa[13]thia[1,14]diazatetracyclo [14.7.2.0~3,6~.0~19,24~]pentacosa[8,16,18,24]tetraene]-7′-carbonitrile 13′,13′-dioxide]	1.34 nM	644 nM	–	–
C[C@@H]1[C@@H](C)CCC[C@@](O)(COCCN(C)C)[C@@H]2CC[C@H]2CN2C[C@@]3(CCCc4cc(Cl)ccc43)COc3ccc(cc32)C(=O)NS1(=O)=O [Example 100194, (1S,3′R,6′R,7′S,11S,12R)-6-chloro-7′-((2-(dimethylamino)ethoxy)methyl)-7′-hydroxy-11′,12′-dimethyl-3,4-dihydro-2H,15′H-spiro[naphthalene-1,22′-[20]oxa[13]thia[1,14]diazatetracyclo [14.7.2.0~3,6~.0~19,24~]pentacosa[16,18,24]trien]-15′-one 13′,13′-dioxide]	0.613 nM	619 nM	–	–
CO[C@@]1(CS(=O)(=O)C(C)C)/C=C/C[C@H](C)[C@@H](C)S(=O)(=O)NC(=O)c2ccc3c(c2)N(C[C@@H]2CC[C@H]21)C[C@@]1(CCCc2cc(Cl)ccc21)CO3 (stereo in doubt) [Example 100315, (1S,3′R,6′R,7′S,8′E,11′S,12′R)-6-chloro-7′-methoxy-11′,12′-dimethyl-7′-((2-propanylsulfonyl)methyl)-3,4-dihydro-2H,15′H-spiro[naphthalene-1,22′-[20]oxa[13]thia[1,14]diazatetracyclo [147.2.0~3,6~.0~19,24~]pentacosa[8,16,18,24]tetraen]-15′-one 13′,13′-dioxide]	0.2 nM	–	–	IC50 [2, 7]: 153 nM
COC(OC)c1cncc([C@]2(O)/C=C/C[C@H](C)[C@@H](C)S(=O)(=O)NC(=O)c3ccc4c(c3)N(C[C@@H]3CC[C@H]32)C[C@@]2(CCCc3cc(Cl)ccc32)CO4)c1 (single isomer, unassigned) [Example 100510]	0.07 nM	379 nM	–	–
C[C@@H]1[C@@H](C)CCC[C@@](O)(CC(=O)N2CCCCC2)[C@@H]2CC[C@H]2CN2C[C@@]3(CCCc4cc(Cl)ccc43)COc3ccc(cc32)C(=O)NS1(=O)=O [Example 100089, (1S,3′R,6′R,7′R,11′S,12′R)-6-chloro-7′-hydroxy-11′,12′-dimethyl-7′-(2-oxo-2-(1-piperidinyl)ethyl)-3,4-dihydro-2H,15′H-spiro[naphthalene-1,22′-[20]oxa[13]thia[1,14]diazatetracyclo [14.7.2.0~3,6~.0~19,24~]pentacosa[16,18,24]trien]-15′-one 13′,13′-dioxide]	0.348 nM	–	–	IC50 [2, 7]: 325 nM
C[C@@H]1[C@@H](C)CCC[C@@](O)(CN)[C@@H]2CC[C@H]2CN2C[C@@]3(CCCc4cc(Cl)ccc43)COc3ccc(cc32)C(=O)NS1(=O)=O (single isomer, unassigned) [Example 507]	–	–	13.7 nM	IC50 [2, 6]: > 33300 nM
CO[C@@]1(CN2CCN(Cc3ncccn3)CC2)/C=C/C[C@H](C)[C@@H](C)S(=O)(=O)NC(=O)c2ccc3c(c2)N(C[C@@H]2CC[C@H]21)C[C@@]1(CCCc2cc(Cl)ccc21)CO3 [Example 338, (1S,3′R,6′R,7′S,8′E,11′S,12′R)-6-chloro-7′-methoxy-11′,12′-dimethyl-7′-((4-(2-pyrimidinylmethyl)-1-piperazinyl)methyl)-3,4-dihydro-2H,15′H-spiro[naphthalene-1,22′-[20]oxa[13]thia[1,14]diazatetracyclo [14.7.2.0~3,6~.0~19,24~]pentacosa[8,16,18,24]tetraen]-15′-one 13′,13′-dioxide]	–	–	0.1 nM	IC50 [2, 8]: 57 nM
CO[C@@]1(CN2CCN(C)CC2)/C=C/C[C@H](C)[C@@H](C)S(=O)(=O)NC(=O)c2ccc3c(c2)N(C[C@@H]2CC[C@H]21)C[C@@]1(CCCc2cc(Cl)ccc21)CO3 [Example 196, (1S,3′R,6′R,7′S,8′E,11′S,12′R)-6-chloro-7′-methoxy-11′,12′-dimethyl-7′-((4-methyl-1-piperazinyl)methyl)-3,4-dihydro-2H,15′H-spiro[naphthalene-1,22′-[20]oxa[13]thia[1,14]diazatetracyclo [14.7.2.0~3,6~.0~19,24~]pentacosa[8,16,18,24]tetraen]-15′-one 13′,13′-dioxide]	–	–	0.47 nM	IC50 [2, 8]: 304 nM
C[C@@H]1[C@@H](C)C/C=C/[C@@](CN2CCN3CCCC[C@@H]3C2)(OCC2CC2)[C@@H]2CC[C@H]2CN2C[C@@]3(CCCc4cc(Cl)ccc43)COc3ccc(cc32)C(=O)NS1(=O)=O [Example 155, (1S,3′R,6′R,7′R,8′E,11′S,12′R)-6-chloro-7′-(cyclopropylmethoxy)-11′,12′-dimethyl-7′-((9aR)-octahydro-2H-pyrido[1,2-a]pyrazin-2-ylmethyl)-3,4-dihydro-2H,15′H-spiro[naphthalene-1,22′-[20]oxa[13]thia[1,14]diazatetracyclo [14.7.2.0~3,6~.0~19,24~]pentacosa[8,16,18,24]tetraen]-15′-one 13′,13′-dioxide]	–	–	0.228 nM	IC50 [2, 8]: 378 nM
C[C@@H]1[C@@H](C)C/C=C/[C@@](O)(C(F)(F)F)[C@@H]2CC[C@H]2CN2C[C@@]3(CCCc4cc(Cl)ccc43)COc3ccc(cc32)C(=O)NS1(=O)=O [Example 100045, (1S,3′R,6′R,7′S,8′E,11′S,12′R)-6-chloro-7′-hydroxy-11′,12′-dimethyl-7′-(trifluoromethyl)-3,4-dihydro-2H,15′H-spiro[naphthalene-1,22′-[20]oxa[13]thia[1,14]diazatetracyclo [14.7.2.0~3,6~.0~19,24~]pentacosa[8,16,18,24]tetraen]-15′-one 13′,13′-dioxide]	0.308 nM	342 nM	–	–
